Source: patent publication US20240158418A1 (C4 Therapeutics, Inc., priority 2021, published 2024)

Target: T1, EGFR L858R-T790M (Homo sapiens, UniProt P00533, L858R/T790M)
T1 construct: NCI-H1975 (harboring EGFR heterozygous L858R-T790M mutations); host or cells: NCI-H1975
Experiment: EGFR degradation, Total EGFR (L858R-specific) HTRF, NCI-H1975
Assay type: cell-based
Settings: Table 9A; NCI-H1975 cells, 6 hours, Total EGFR HTRF; read-out: H1975 EGFR DC50
Outline: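 FRET signal from HTRF kits measured phospho-EGFR at pY1068 or total EGFR after 6 h treatment at 37 °C. Compounds ran as 11-point half-log dilutions from 10 μM in duplicate, in cells in phenol red-free RPMI with 10% FBS. Concentrations giving 50% inhibition or degradation were reported as IC50 or DC50.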

T1 sequence (P00533 25-1210 T790M/L858R): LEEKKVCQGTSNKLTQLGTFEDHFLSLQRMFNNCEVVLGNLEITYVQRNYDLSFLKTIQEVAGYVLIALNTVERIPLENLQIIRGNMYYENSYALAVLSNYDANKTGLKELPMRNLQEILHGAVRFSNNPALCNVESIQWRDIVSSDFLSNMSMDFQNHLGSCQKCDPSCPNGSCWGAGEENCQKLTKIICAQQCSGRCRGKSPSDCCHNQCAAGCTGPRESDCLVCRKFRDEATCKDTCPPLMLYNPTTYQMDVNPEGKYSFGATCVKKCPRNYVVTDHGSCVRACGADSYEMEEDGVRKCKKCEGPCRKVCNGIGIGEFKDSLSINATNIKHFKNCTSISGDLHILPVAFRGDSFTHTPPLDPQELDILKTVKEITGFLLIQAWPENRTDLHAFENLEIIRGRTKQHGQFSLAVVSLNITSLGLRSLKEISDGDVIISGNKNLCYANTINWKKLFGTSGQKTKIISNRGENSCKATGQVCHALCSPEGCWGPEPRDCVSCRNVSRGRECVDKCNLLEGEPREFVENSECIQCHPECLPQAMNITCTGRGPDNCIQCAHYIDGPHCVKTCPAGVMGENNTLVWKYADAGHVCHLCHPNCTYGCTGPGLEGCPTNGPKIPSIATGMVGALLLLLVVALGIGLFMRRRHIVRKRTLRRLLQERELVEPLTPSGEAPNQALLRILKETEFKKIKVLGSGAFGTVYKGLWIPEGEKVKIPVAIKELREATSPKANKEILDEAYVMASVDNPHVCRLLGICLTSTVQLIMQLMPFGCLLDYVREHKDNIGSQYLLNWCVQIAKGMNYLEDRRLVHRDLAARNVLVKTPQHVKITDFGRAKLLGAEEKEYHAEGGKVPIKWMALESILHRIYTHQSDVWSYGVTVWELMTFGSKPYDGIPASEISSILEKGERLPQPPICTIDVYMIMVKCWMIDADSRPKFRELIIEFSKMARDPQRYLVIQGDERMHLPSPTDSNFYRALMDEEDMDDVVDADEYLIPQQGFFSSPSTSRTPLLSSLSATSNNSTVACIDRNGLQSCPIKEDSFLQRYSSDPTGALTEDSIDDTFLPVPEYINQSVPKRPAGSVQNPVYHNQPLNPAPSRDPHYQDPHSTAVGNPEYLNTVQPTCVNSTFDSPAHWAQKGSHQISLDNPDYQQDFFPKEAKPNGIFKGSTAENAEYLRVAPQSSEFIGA

Row | DC50 | SMILES
1 | < 50 nM | O=C1CCC(Nc2ccc(C3CCN(C(=O)CN4CCC(c5ccc(-c6cc(F)c7c(c6)C(=O)N(C(C(=O)Nc6nccs6)c6ncn8c6CCC8)C7)cc5)CC4)CC3)cc2)C(=O)N1 (stereo not drawn) [Compound 26, 2-(6,7-dihydro-5H-pyrrolo[1,2-c]imidazol-1-yl)-2-[6-[4-[1-[2-[4-[4-[(2,6-dioxo-3-piperidyl)amino]phenyl]-1-piperidyl]-2-oxo-ethyl]-4-piperidyl]phenyl]-4-fluoro-1-oxo-isoindolin-2-yl]-N-thiazol-2-yl-acetamide]
2 | 50 to 150 nM | O=C1CCC(Nc2ccc(C3CCN(CC(=O)N4CCN(c5ccc(-c6cc(F)c7c(c6)C(=O)N(C(C(=O)Nc6nccs6)c6ncn8c6CCC8)C7)cc5)CC4)CC3)cc2F)C(=O)N1 (stereo not drawn) [Compound 13, 2-(6,7-dihydro-5H-pyrrolo[1,2-c]imidazol-1-yl)-2-[6-[4-[4-[2-[4-[4-[(2,6-dioxo-3-piperidyl)amino]-3-fluoro-phenyl]-1-piperidyl]acetyl]piperazin-1-yl]phenyl]-4-fluoro-1-oxo-isoindolin-2-yl]-N-thiazol-2-yl-acetamide]
3 | < 50 nM | O=C1CCC(Oc2ccc(N3CCN(CC(=O)N4CCC(NC(=O)c5ccc(C#Cc6cc(F)c7c(c6)C(=O)N(C(C(=O)Nc6nccs6)c6ncn8c6CCC8)C7)cn5)CC4)CC3)cc2)C(=O)N1 (stereo not drawn) [Compound 51, 5-[2-[2-[1-(6,7-dihydro-5H-pyrrolo[1,2-c]imidazol-1-yl)-2-oxo-2-(thiazol-2-ylamino)ethyl]-7-fluoro-3-oxo-isoindolin-5-yl]ethynyl]-N-[1-[2-[4-[4-[(2,6-dioxo-3-piperidyl)oxy]phenyl]piperazin-1-yl]acetyl]-4-piperidyl]pyridine-2-carboxamide]

Same assay, conditions: Table 9B; NCI-H1975 cells, 6 hours, Total EGFR HTRF; read-out: H1975 EGFR DC50

Row | DC50 | SMILES
4 | < 50 nM | O=C1CC[C@H](Nc2ccc(N3CCC(O)(CC(=O)N4CCC5(CC4)CN(c4ccc(-c6cc(F)c7cn(C(C(=O)Nc8nccs8)c8ncn9c8CCC9)nc7c6)cc4)C5)CC3)c(F)c2)C(=O)N1 (stereo partly drawn) [Compound 79, 2-(6,7-dihydro-5H-pyrrolo[1,2-c]imidazol-1-yl)-2-(6-(4-(7-(2-(1-(4-(((S)-2,6-dioxopiperidin-3-yl)amino)-2-fluorophenyl)-4-hydroxypiperidin-4-yl)acetyl)-2,7-diazaspiro[3.5]nonan-2-yl)phenyl)-4-fluoro-2H-indazol-2-yl)-N-(thiazol-2-yl)acetamide]
5 | < 50 nM | COc1cc(N2CCC(O)(CC(=O)N3CC4(C3)CN(c3ccc(-c5cc(F)c6c(c5)C(=O)N(C(C(=O)Nc5nccs5)c5ncn7c5CCC7)C6)cc3)C4)CC2)c(F)cc1NC1CCC(=O)NC1=O (single isomer, unassigned) [Compound 173, 2-(6,7-dihydro-5H-pyrrolo[1,2-c]imidazol-1-yl)-2-[6-[4-[2-[2-[1-[4-[[2,6-dioxo-3-piperidyl]amino]-2-fluoro-5-methoxy-phenyl]-4-hydroxy-4-piperidyl]acetyl]-2,6-diazaspiro[3.3]heptan-6-yl]phenyl]-4-fluoro-1-oxo-isoindolin-2-yl]-N-thiazol-2-yl-acetamide]
6 | < 50 nM | O=C1CCC(Nc2cnc(N3CCC(O)(CC(=O)N4CC5(C4)CN(c4ccc(-c6cc(F)c7c(c6)C(=O)N(C(C(=O)Nc6nccs6)c6ncn8c6CCC8)C7)cc4)C5)CC3)c(F)c2)C(=O)N1 (stereo not drawn) [Compound 90, 2-(6,7-dihydro-5H-pyrrolo[1,2-c]imidazol-1-yl)-2-(6-(4-(6-(2-(1-(5-((2,6-dioxopiperidin-3-yl)amino)-3-fluoropyridin-2-yl)-4-hydroxypiperidin-4-yl)acetyl)-2,6-diazaspiro[3.3]heptan-2-yl)phenyl)-4-fluoro-1-oxoisoindolin-2-yl)-N-(thiazol-2-yl)acetamide]
7 | < 50 nM | Cn1nc(N2CCC(=O)NC2=O)c2cc(F)c(C3CCN(CC(=O)N4CC5(C4)CN(c4ccc(-c6cc(F)c7c(c6)C(=O)N(C(C(=O)Nc6nccs6)c6ncn8c6CCC8)C7)cc4)C5)CC3(F)F)cc21 (single isomer, unassigned; isomer 2) [Compound 130, 2-(6,7-dihydro-5H-pyrrolo[1,2-c]imidazol-1-yl)-2-[6-[4-[2-[2-[4-[3-(2,4-dioxohexahydropyrimidin-1-yl)-5-fluoro-1-methyl-indazol-6-yl]-3,3-difluoro-1-piperidyl]acetyl]-2,6-diazaspiro[3.3]heptan-6-yl]phenyl]-4-fluoro-1-oxo-isoindolin-2-yl]-N-thiazol-2-yl-acetamide, isomer 2]
8 | 50 to 150 nM | O=C1CCC(Nc2cc(F)c(N3CCC(O)(CC(=O)N4CCC5(CC4)CN(c4ccc(-c6cc(F)c7c(c6)C(=O)N(C(C(=O)Nc6nccs6)c6ncn8c6CCC8)C7)cc4)C5)CC3)c(F)c2)C(=O)N1 (single isomer, unassigned; isomer 1) [Compound 137, 2-(6,7-dihydro-5H-pyrrolo[1,2-c]imidazol-1-yl)-2-[6-[4-[7-[2-[1-[4-[2,6-dioxo-3-piperidyl]amino]-2,6-difluoro-phenyl]-4-hydroxy-4-piperidyl]acetyl]-2,7-diazaspiro[3.5]nonan-2-yl]phenyl]-4-fluoro-1-oxo-isoindolin-2-yl]-N-thiazol-2-yl-acetamide, isomer 1]
9 | 50 to 150 nM | Cn1nc(N2CCC(=O)NC2=O)c2ccc([C@H]3CCN(C(=O)CN4CC5(CCN(c6ccc(-c7cc(F)c8c(c7)C(=O)N(C(C(=O)Nc7nccs7)c7ncn9c7CCC9)C8)cc6)CC5)C4)CC3(F)F)cc21 (stereo partly drawn) [Compound 143, 2-(6,7-dihydro-5H-pyrrolo[1,2-c]imidazol-1-yl)-2-[6-[4-[2-[2-[(4R)-4-[3-(2,4-dioxohexahydropyrimidin-1-yl)-1-methyl-indazol-6-yl]-3,3-difluoro-1-piperidyl]-2-oxo-ethyl]-2,7-diazaspiro[3.5]nonan-7-yl]phenyl]-4-fluoro-1-oxo-isoindolin-2-yl]-N-thiazol-2-yl-acetamide]
10 | < 50 nM | O=C1CC[C@H](Nc2ccc(N3CCC(O)(CC(=O)N4CC5(C4)CN(c4ccc(-c6ccc7cn(C(C(=O)Nc8nccs8)c8ncn9c8CCC9)nc7c6F)cc4)C5)CC3)c(F)c2)C(=O)N1 (stereo partly drawn) [Compound 78, 2-(6,7-dihydro-5H-pyrrolo[1,2-c]imidazol-1-yl)-2-(6-(4-(6-(2-(1-(4-(((S)-2,6-dioxopiperidin-3-yl)amino)-2-fluorophenyl)-4-hydroxypiperidin-4-yl)acetyl)-2,6-diazaspiro[3.3]heptan-2-yl)phenyl)-7-fluoro-2H-indazol-2-yl)-N-(thiazol-2-yl)acetamide]
11 | < 50 nM | Cn1nc(N2CCC(=O)NC2=O)c2ccc(C3CCN(CC(=O)N4CC5(C4)CN(c4ccc(-c6cc(F)c7c(c6)C(=O)N(C(C(=O)Nc6nccs6)c6ncn8c6CCC8)C7)cc4)C5)CC3F)cc21 (single isomer, unassigned; isomer 2) [Compound 125, 2-(6,7-dihydro-5H-pyrrolo[1,2-c]imidazol-1-yl)-2-[6-[4-[2-[2-[4-[3-(2,4-dioxohexahydropyrimidin-1-yl)-1-methyl-indazol-6-yl]-3-fluoro-1-piperidyl]acetyl]-2,6-diazaspiro[3.3]heptan-6-yl]phenyl]-4-fluoro-1-oxo-isoindolin-2-yl]-N-thiazol-2-yl-acetamide, isomer 2]
12 | 50 to 150 nM | Cc1cc(C2CCN(C(=O)CN3CCC(c4ccc(NC5CCC(=O)NC5=O)cc4)CC3)CC2)ccc1-c1cc(F)c2c(c1)C(=O)N(C(C(=O)Nc1nccs1)c1ncn3c1CCC3)C2 (stereo not drawn) [Compound 152, 2-(6,7-dihydro-5H-pyrrolo[1,2-c]imidazol-1-yl)-2-[6-[4-[1-[2-[4-[4-[(2,6-dioxo-3-piperidyl)amino]phenyl]-1-piperidyl]acetyl]-4-piperidyl]-2-methyl-phenyl]-4-fluoro-1-oxo-isoindolin-2-yl]-N-thiazol-2-yl-acetamide]
